In assay [1] the test system is asparaginase I. Briefly: Asparaginase I production on supplemented medium. The class given is cell-based. Conditions: YEMEA, 7.5 g/L urea, 10 ppm cobalt. The protocol:
The induction of asparaginase I production in various nitrile hydratase producing microorganisms was evaluated. All strains were grown on YEMEA medium containing 7.5 g/L of urea and 10 ppm cobalt (provided as cobalt chloride) supplemented with asparagine (ASN), glutamine (GLN), or both asparagine and glutamine. The asparagine and glutamine were added at a concentration of 3.8 mM. As a comparative, enzyme production was also evaluated with supplementation with acrylonitrile (AN), acrylamide (AMD) or acrylonitrile and acrylamide. Growth temperature was in the range of 26° C. to 30° C.

The test system of assay [2] is nitrile hydratase. Put plainly: Nitrile hydratase induction by inducers (Example 1). The format is cell-based, Rhodococcus sp., strain DAP 96253. The note with it: inducer 1000 ppm; for Nitrile Hydratase Activity: Rhodococcus sp. DAP 96253, YEMEA, 10 ppm cobalt, 7.5 g/L urea. The method, then:
(§1) The induction of nitrile hydratase activity and amidase activity in Rhodococcus sp., strain DAP 96253, was evaluated using multiple types of inducers (1000 ppm). Three different samples were cultured in YEMEA medium containing 10 ppm cobalt and 7.5 g/L urea and supplemented with acrylonitrile, asparagine, or glutamine. The specific nitrile hydratase activity and the specific amidase activity in each sample was evaluated, and the results are provided below in Table 3, with activities provided in units/mg cdw (cell dry weight). One unit of nitrile hydratase activity relates to the ability to convert 1 μmol of acrylonitrile to its corresponding amide per minute, per milligram of cells (dry weight) at a pH of 7.0 and a temperature of 30° C. One unit of amidase activity relates to the ability to convert 1 μmol of acrylamide to its corresponding acid per minute, per milligram of cells (dry weight) pH of 7.0 and a temperature of 30° C.

Assay [3] has as its system amidase. Put plainly: Amidase induction by inducers (Example 1). The format is cell-based, Rhodococcus sp., strain DAP 96253. The note with it: for Amidase Activity: Rhodococcus sp. DAP 96253, YEMEA, 10 ppm cobalt, 7.5 g/L urea, inducer 1000 ppm. The protocol: as §1
Assay [4] concerns asparaginase I. Briefly: Effect of inducer and media composition on asparaginase I production. The format is cell-based, Rhodococcus sp. DAP 96253. Conditions: inducer 1000 ppm; for Asparaginase I levels, YEMEA - Glucose With Cobalt / Asparaginase I levels, YEMEA - Glucose Without Cobalt / Asparaginase I levels, YEMEA - Maltose With Cobalt / Asparaginase I levels, YEMEA - Maltose Without Cobalt: Rhodococcus sp. DAP 96253. The method, then: Testing was performed to evaluate the effect on asparaginase I activity based upon the inducer used. In particular, testing was performed using asparagine, glutamine, succinonitrile, and isovaleronitrile as inducers (all added at 1000 ppm each).

Assay [5] deals with nitrile hydratase. Put plainly: Nitrile hydratase production on supplemented medium. The format is cell-based. The note with it: YEMEA, urea, cobalt, supplement 3.8 mM. The method, then:
(§2) The induction of nitrile hydratase production and amidase production in various nitrile hydratase producing microorganisms was evaluated. All strains were grown on YEMEA medium containing 7.5 g/L of urea and 10 ppm cobalt (provided as cobalt chloride) supplemented with asparagine (ASN), glutamine (GLN), or both asparagine and glutamine. The asparagine and glutamine were added at a concentration of 3.8 mM. As a comparative, enzyme production with no supplementation was also tested. Growth temperature was in the range of 26° C. to 30° C.

The subject of assay [6] is amidase. Put plainly: Amidase production on supplemented medium. The class given is cell-based. Conditions: YEMEA, urea, cobalt, supplement 3.8 mM. The method, then:
as §2

Assay [7] concerns Rhodococcus erythropolis ATCC 47072. Put plainly: Growth on supplemented YEMEA (visual grade). The class given is cell-based. Also noted: key: (−) meaning no detectable growth; (+/−) meaning scant growth; (+) meaning little growth; (++) meaning good growth; (+++) meaning very good growth; (++++) meaning excellent growth. The note with it: 26 °C, 7.5 g/L urea, 10 ppm cobalt, supplement 3.8 mM. The protocol:
(§3) The relative growth of various nitrile hydratase producing microorganisms was evaluated. All strains were grown on YEMEA medium containing 7.5 g/L of urea and 10 ppm cobalt (provided as cobalt chloride) supplemented with asparagine (ASN), glutamine (GLN), or both asparagine and glutamine. The asparagine and glutamine were added at a concentration of 3.8 mM. Growth temperature was in the range of 26° C. to 30° C. Growth was evaluated by visual inspection and graded on the following scale: (−) meaning no detectable growth; (+/−) meaning scant growth; (+) meaning little growth; (++) meaning good growth; (+++) meaning very good growth; and (++++) meaning excellent growth.

Assay [8] has as its system Pseudomonas chloroaphis ATCC 13985. Briefly: Growth on supplemented YEMEA (visual grade). The format is cell-based. Further details: key: (−) meaning no detectable growth; (+/−) meaning scant growth; (+) meaning little growth; (++) meaning good growth; (+++) meaning very good growth; (++++) meaning excellent growth. The note with it: 26 °C, 7.5 g/L urea, 10 ppm cobalt, supplement 3.8 mM. The method, then:
as §3

In assay [9] the test system is Brevibacterium ketoglutaricum ATCC 21533. Put plainly: Growth on supplemented YEMEA (visual grade). The format is cell-based. Also noted: key: (−) meaning no detectable growth; (+/−) meaning scant growth; (+) meaning little growth; (++) meaning good growth; (+++) meaning very good growth; (++++) meaning excellent growth. The note with it: 30 °C, 7.5 g/L urea, 10 ppm cobalt, supplement 3.8 mM. The method, then:
as §3

Assay [10] has as its system Rhodococcus sp. DAP 96253 ATCC 55899. Briefly: Growth on supplemented YEMEA (visual grade). The class given is cell-based. Also noted: key: (−) meaning no detectable growth; (+/−) meaning scant growth; (+) meaning little growth; (++) meaning good growth; (+++) meaning very good growth; (++++) meaning excellent growth. Conditions: 30 °C, 7.5 g/L urea, 10 ppm cobalt, supplement 3.8 mM. The method, then: as §3

Assay [11] relates to Rhodococcus rhodochrous DAP 96622 ATCC 55898. Put plainly: Growth on supplemented YEMEA (visual grade). The class given is cell-based. Further details: key: (−) meaning no detectable growth; (+/−) meaning scant growth; (+) meaning little growth; (++) meaning good growth; (+++) meaning very good growth; (++++) meaning excellent growth. The note with it: 26 °C, 7.5 g/L urea, 10 ppm cobalt, supplement 3.8 mM. The method, then: as §3

Assay [12] deals with Pseudomonas chloroaphis ATCC 43051. Put plainly: Growth on supplemented YEMEA (visual grade). The class given is cell-based. Further details: key: (−) meaning no detectable growth; (+/−) meaning scant growth; (+) meaning little growth; (++) meaning good growth; (+++) meaning very good growth; (++++) meaning excellent growth. The note with it: 30 °C, 7.5 g/L urea, 10 ppm cobalt, supplement 3.8 mM. The protocol: as §3

Where [13] appears, read: Brevibacterium ketoglutaricum ATCC 21533, 30 °C.
Setting [14] is: Pseudomonas chloroaphis ATCC 13985, 26 °C.
[15] abbreviates: Rhodococcus erythropolis ATCC 47072, 26 °C.
Setting [16] is: Rhodococcus rhodochrous DAP 96622 ATCC 55898, 26 °C.
[17] abbreviates: Rhodococcus sp. DAP 96253 ATCC 55899, 30 °C.
Where [18] appears, read: Pseudomonas chloroaphis ATCC 43051, 30 °C.

Structures are written as SMILES.

`C=CC(N)=O` [AMD, acrylamide, reference compound]: the “Asparaginase I Level Based on Growth Medium Supplementation” value (shortened to “Asparaginase I Level Based”) in assay [1] (setting [13]) is listed as 15.4 Units/mg cdw; in [1] (setting [14]), 0 Units/mg cdw; in assay [1] (setting [15]) it was 0 Units/mg cdw; in assay [1] (setting [16]), 7.8 Units/mg cdw; in [1] (setting [17]) it was 2 Units/mg cdw.
As to `C=CC#N` [Acrylonitrile, acrylonitrile, reference compound], the “Nitrile Hydratase Activity” value in [2] is listed as 162.23 Units/mg cdw. The “Asparaginase I Level Based” value in assay [1] (setting [13]) worked out at 14.6 Units/mg cdw; in [1] (setting [14]) it was 2 Units/mg cdw; in assay [1] (setting [16]), 8.2 Units/mg cdw; in assay [1] (setting [17]) it was 7.8 Units/mg cdw. Moreover, in assay [3], the “Amidase Activity” value was 7.59 Units/mg cdw.
With `NC(=O)CC[C@H](N)C(=O)O` [Glutamine, glutamine], the “Nitrile Hydratase Activity” value in assay [2] was found to be 173.45 Units/mg cdw. In addition, in assay [2], the “nitrile hydratase induction compared with acrylonitrile” value is “exceeds the ability of acrylonitrile to induce such activity”. In assay [4], the “Asparaginase I levels, YEMEA - Glucose With Cobalt” value turned out to be 1.9 units/mg cell dry weight. Moreover, the “Asparaginase I levels, YEMEA - Glucose Without Cobalt” value in [4] was determined as 1.5 units/mg cell dry weight. Besides, in [4], the “Asparaginase I levels, YEMEA - Maltose With Cobalt” value was found to be 8.1 units/mg cell dry weight. Moreover, the “Asparaginase I levels, YEMEA - Maltose Without Cobalt” value in assay [4] was 9.3 units/mg cell dry weight. Moreover, the “ability to induce asparaginase I activity” value in [4] is “showed an ability to induce asparaginase I activity”. Besides, the “Asparaginase I Level Based” value in assay [1] (setting [13]) is given as 20.3 Units/mg cdw; in [1] (setting [14]), 0 Units/mg cdw; in [1] (setting [18]) it was “No”; in [1] (setting [15]) it was 2 Units/mg cdw; in [1] (setting [16]), 10 Units/mg cdw; in assay [1] (setting [17]) it was 11.1 Units/mg cdw. Also, the “Nitrile Hydratase Level Based on Growth Medium Supplementation” value in assay [5] (setting [13]) is 37 Units/mg cdw; in assay [5] (setting [14]), 0 Units/mg cdw; in assay [5] (setting [18]), “No”; in [5] (setting [15]), 42 Units/mg cdw; in assay [5] (setting [16]), 160 Units/mg cdw; in assay [5] (setting [17]) it was 135 Units/mg cdw. For the same compound, the “Amidase Activity” value in assay [3] amounted to 10.39 Units/mg cdw. Further, the “amidase activity greater than that resulting from acrylonitrile” value in assay [3] (relative to acrylonitrile as inducer, 1000 ppm) is on record as “approximately 37%”. For the same compound, the “Amidase Level Based on Growth Medium Supplementation” value in assay [6] (setting [13]) was 0 Units/mg cdw; in [6] (setting [14]) it was 0 Units/mg cdw; in [6] (setting [18]), “No”; in [6] (setting [15]), 14 Units/mg cdw; in [6] (setting [16]) it was 6 Units/mg cdw; in assay [6] (setting [17]) it was 7 Units/mg cdw. Also, the Growth entry in [7] is “++”; in assay [8] it was “+”; in assay [9], “+”; in assay [10], “++++”; in [11] it was “++++”; in assay [12], “−”.
Regarding `CC(C)CC#N` [Isovaleronitrile, isovaleronitrile, reference compound], in assay [4], the “Asparaginase I levels, YEMEA - Glucose With Cobalt” value was 2.9 units/mg cell dry weight; the “Asparaginase I levels, YEMEA - Glucose Without Cobalt” value came out at 3.5 units/mg cell dry weight; the “Asparaginase I levels, YEMEA - Maltose With Cobalt” value turned out to be 7.0 units/mg cell dry weight; the “Asparaginase I levels, YEMEA - Maltose Without Cobalt” value stood at 6.8 units/mg cell dry weight.
As for `N#CCCC#N` [Succinonitrile, succinonitrile, reference compound], in assay [4], the “Asparaginase I levels, YEMEA - Glucose With Cobalt” value turned out to be 8.5 units/mg cell dry weight; the “Asparaginase I levels, YEMEA - Glucose Without Cobalt” value is given as 6.5 units/mg cell dry weight; the “Asparaginase I levels, YEMEA - Maltose With Cobalt” value was determined as 10.0 units/mg cell dry weight; the “Asparaginase I levels, YEMEA - Maltose Without Cobalt” value was found to be 11.0 units/mg cell dry weight. In [4], the “ability to induce asparaginase I activity” value is reported as “showed an ability to induce asparaginase I activity”.
